In ChEMBL document CHEMBL1158084, “Cytotoxic diterpenoids from the soft coral Sarcophyton crassocaule” (J Nat Prod, 2006):
In brackets after ≈: the same amount, converted by molar mass.

System: KB
Experiment: Cytotoxicity against human KB cells
Assay type: functional, cell-based

Row | SMILES | IC50
1 | COC(=O)/C1=C/C=C(/C(C)C)CCC2=CCC[C@](C)(OC2=O)[C@H](OC(C)=O)CC1 [SARCRASSIN D] | 4 µg/mL (≈ 9.89 µM)
2 | COC(=O)/C1=C\[C@@H]2O[C@@]2(C(C)C)CC/C(C(=O)OC)=C/CC[C@]2(C)O[C@H]2CC1 | 5 µg/mL (≈ 12.7 µM)
3 | COC(=O)/C1=C/C=C(/C(C)C)CCC2=CCC[C@](C)(OC2=O)C(=O)CC1 [SARCRASSIN E] | 13 µg/mL (≈ 36.1 µM)
4 | COC(=O)/C1=C\C=C(\C(C)C)CCC2=CCC[C@](C)(OC2=O)[C@@H](OC(C)=O)CC1 [EMBLIDE] | 5 µg/mL (≈ 12.4 µM)
